The values below come from PMC8151276, “An Integrated Approach toward NanoBRET Tracers for Analysis of GPCR Ligand Engagement” (Molecules, 2021).

Where “and” joins values, the source holds several entries; their conditions need not be identical. Identical values can stand only once. Like-named read-outs stand apart in the source and are kept apart here.

What all share (format): binding
The target in assay [1] is T1, DRD5 (Homo sapiens, UniProt P21918).
T1 construct: purchased Promega (in-house HiBiT-GPCR construct library, NanoBRET)
T1 sequence (P21918 whole entry): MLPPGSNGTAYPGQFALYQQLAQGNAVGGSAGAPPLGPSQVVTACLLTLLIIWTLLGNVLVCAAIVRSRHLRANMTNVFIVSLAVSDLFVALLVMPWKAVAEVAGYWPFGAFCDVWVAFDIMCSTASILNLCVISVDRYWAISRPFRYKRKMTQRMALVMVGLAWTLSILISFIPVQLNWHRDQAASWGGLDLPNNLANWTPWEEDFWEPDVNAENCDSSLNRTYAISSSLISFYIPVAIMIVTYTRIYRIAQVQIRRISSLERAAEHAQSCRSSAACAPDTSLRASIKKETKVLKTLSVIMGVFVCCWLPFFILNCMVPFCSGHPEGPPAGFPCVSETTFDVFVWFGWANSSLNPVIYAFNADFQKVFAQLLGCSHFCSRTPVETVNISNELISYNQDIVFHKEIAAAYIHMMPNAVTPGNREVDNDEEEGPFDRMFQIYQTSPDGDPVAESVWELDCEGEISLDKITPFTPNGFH
Put plainly: NanoBRET screen HiBiT-DRD5 in HEK293. The method, then:
(§1) Each tracer candidate was screened across the entire library of HiBiT-GPCR constructs using NanoBRET as the detection modality. As depicted in Figure 4A, the specificity of interactions was evaluated through decrease in BRET due to competitive displacement of a bound tracer by excess parental compound. Each tracer was analyzed for binding to each HiBiT-GPCR fusion in the absence and in the presence of competing parental compound. Briefly, HEK293 cells were transfected with HiBiT-GPCR constructs diluted into promoterless DNA to reduce expression and maximize translocation to the cell surface. Each tracer candidate was then screened at concentrations of 1 μM and 0.1 μM across cells expressing these fusions. Cells were treated for 1.5 h with tracer either alone or in the presence of 20 μM competing parental compound (i.e., control). BRET was measured upon addition of purified LgBiT and subsequent complementation with HiBiT genetically fused to a GPCR. The specificity of interactions was assessed through a decrease in BRET signal due to competitive displacement of the bound tracer. To further gauge the robustness of these interactions, the fold response over the control (i.e., BRETtracer/BRETcontrol) was calculated. We chose a 1.5-fold response, which translates to ≥7-fold signal over noise as the minimal threshold required to score an interaction as positive. […]. Below we highlight the screening results obtained for our exemplary fluorescent tracers based on Clozapine, Amitriptyline and AZD1283.
(§2) HiBiT-GPCR DNA constructs were diluted in 10 mM Tris pH 8 to a final concentration of 0.01 μg/μL, arrayed in 96-well plates and stored at −20 °C. For transfection, HEK293 cells were suspended in Opti-MEM (without phenol red) supplemented with 2% fetal bovine serum (Seradigm) and 100 units/mL penicillin–streptomycin (Gibco) at a final concentration of 220,000 cells/mL and dispensed into white 96-well plates at 90 μL/well. Subsequent transfections and screens were carried using an Agilent Bravo Automated Liquid Handling Platform. First, the 96-well HiBiT DNA arrays were diluted 25-fold in Opti-MEM (without serum or phenol red) to a final concentration of 0.0004 μg/μL and 20 μL of the diluted DNAs were transferred into new 96-well plates. Next, promoterless carrier DNA (1 μg/μL) was diluted 25-fold (0.04 μg/μL) and then dispensed into the diluted arrays at 20 μL/well. Following brief mixing, Viafect transfection reagent (Promega) diluted 16-fold into Opti-MEM was dispensed into the plates at 40 μL/well. After mixing by pipetting, plates were incubated for 10 min on the pipetting station deck. The DNA-transfection reagent complexes were then added to plates containing cells. To facilitate the screen, 10 μL of DNA-transfection reagent complexes were added in duplicates to the top 4 and bottom 4 rows, resulting in two identical 48-well arrays per plate. Plates with transfected cells were incubated for 18–20 h at 37 °C/5% CO2. A screen of each tracer across the entire library using two different concentrations requires duplicate plates of transfected cells. Depending on the number of tracers being screened, transfections can be scaled up using the same ratios. The next day, for each tracer, four 20× screening solutions in tracer dilution buffer (Promega) were prepared: two duplicates at final concentration of 20 μM and two duplicates at a final concentration of 2 μM. A competing unmodified compound was added to one of each duplicate at a final concentration of 400 μM. The four resulting solutions were diluted 4-fold in Opti-MEM without serum or phenol red to generate 5× solutions (5 µM and 0.5 µM tracer +/− 100 μM competing compound). To screen the library, a BioTek MultiFlo FX liquid dispenser was used to dispense 22.5 µL of tracer solution to the top 4 rows and 22.5 µL tracer + competing compound solution to the 4 bottom rows. Plates were briefly mixed on an orbital shaker and incubated for 1.5 h at room temperature. […]
(In general: BRET reads energy transfer from a luciferase to a nearby fluorophore.)

Assay [2] addresses T2, CCR2 (Homo sapiens, UniProt P41597).
T2 construct: purchased Promega (in-house HiBiT-GPCR construct library, NanoBRET)
Kind of assay: NanoBRET screen HiBiT-CCR2 in HEK293. The method, then:
as §1, §2

For assay [3], the target named is T3, HCRTR1 (Homo sapiens, UniProt O43613).
T3 construct: purchased Promega (in-house HiBiT-GPCR construct library, NanoBRET)
T3 sequence (O43613 1-425): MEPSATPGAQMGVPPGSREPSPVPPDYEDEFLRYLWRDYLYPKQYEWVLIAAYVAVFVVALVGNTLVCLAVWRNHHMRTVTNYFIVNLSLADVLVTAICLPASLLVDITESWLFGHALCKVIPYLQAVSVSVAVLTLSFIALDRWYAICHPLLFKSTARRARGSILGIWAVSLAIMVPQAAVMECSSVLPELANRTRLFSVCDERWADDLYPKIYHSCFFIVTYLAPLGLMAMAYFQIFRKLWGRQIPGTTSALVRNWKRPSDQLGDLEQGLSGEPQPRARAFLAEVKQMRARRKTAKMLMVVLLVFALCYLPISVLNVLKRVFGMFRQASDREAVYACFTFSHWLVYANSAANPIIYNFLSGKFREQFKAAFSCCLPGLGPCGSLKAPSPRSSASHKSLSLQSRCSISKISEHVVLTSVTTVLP
Put plainly: NanoBRET screen HiBiT-HCRTR1 in HEK293. How it is done: as §1, §2

The target of assay [4] is T4, HRH1 (Homo sapiens, UniProt P35367).
T4 construct: purchased Promega (in-house HiBiT-GPCR construct library, NanoBRET)
T4 sequence (P35367 whole entry): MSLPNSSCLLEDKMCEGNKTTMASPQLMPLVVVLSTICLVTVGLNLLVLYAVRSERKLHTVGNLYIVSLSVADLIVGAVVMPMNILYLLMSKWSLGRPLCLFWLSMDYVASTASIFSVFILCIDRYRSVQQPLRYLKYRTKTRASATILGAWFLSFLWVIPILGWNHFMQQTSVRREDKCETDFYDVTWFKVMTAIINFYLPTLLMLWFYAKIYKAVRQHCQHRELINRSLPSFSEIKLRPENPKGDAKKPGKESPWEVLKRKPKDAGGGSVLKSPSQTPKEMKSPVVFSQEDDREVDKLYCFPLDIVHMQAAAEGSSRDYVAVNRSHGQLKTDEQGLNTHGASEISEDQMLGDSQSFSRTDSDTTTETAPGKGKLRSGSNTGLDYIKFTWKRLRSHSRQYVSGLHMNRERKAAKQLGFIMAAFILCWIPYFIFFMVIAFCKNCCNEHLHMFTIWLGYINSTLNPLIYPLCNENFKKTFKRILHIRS
Put plainly: NanoBRET screen HiBiT-HRH1 in HEK293.

For assay [5], the target named is T5, BDKRB1 (Homo sapiens, UniProt P46663).
T5 construct: purchased Promega (in-house HiBiT-GPCR construct library, NanoBRET)
T5 sequence (P46663 1-353): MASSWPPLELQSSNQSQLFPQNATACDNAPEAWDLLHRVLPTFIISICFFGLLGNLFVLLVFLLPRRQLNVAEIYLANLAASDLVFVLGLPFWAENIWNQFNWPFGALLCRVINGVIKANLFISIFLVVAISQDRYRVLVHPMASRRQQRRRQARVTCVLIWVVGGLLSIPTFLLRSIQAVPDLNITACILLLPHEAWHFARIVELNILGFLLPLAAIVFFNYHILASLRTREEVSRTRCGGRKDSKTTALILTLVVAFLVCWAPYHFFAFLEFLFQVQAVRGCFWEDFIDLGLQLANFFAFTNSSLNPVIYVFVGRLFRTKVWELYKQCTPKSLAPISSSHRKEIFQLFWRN
Kind of assay: NanoBRET screen HiBiT-BDKRB1 in HEK293. How it is done: as §1, §2

Assay [6] concerns the target T6, CHRM3 (Homo sapiens, UniProt P20309).
T6 construct: purchased Promega (in-house HiBiT-GPCR construct library, NanoBRET)
Kind of assay: NanoBRET screen HiBiT-CHRM3 in HEK293.

T2 sequence (P41597 whole entry): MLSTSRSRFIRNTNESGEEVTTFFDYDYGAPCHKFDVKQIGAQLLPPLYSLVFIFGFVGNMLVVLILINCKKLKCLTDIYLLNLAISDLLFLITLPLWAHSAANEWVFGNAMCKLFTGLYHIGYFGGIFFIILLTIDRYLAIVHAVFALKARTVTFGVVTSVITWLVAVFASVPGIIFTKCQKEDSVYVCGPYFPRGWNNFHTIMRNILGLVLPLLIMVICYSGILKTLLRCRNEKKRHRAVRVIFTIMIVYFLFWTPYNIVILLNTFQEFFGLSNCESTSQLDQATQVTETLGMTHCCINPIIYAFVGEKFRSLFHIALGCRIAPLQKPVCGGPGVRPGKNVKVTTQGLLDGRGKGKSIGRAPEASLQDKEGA
T6 sequence (P20309 whole entry): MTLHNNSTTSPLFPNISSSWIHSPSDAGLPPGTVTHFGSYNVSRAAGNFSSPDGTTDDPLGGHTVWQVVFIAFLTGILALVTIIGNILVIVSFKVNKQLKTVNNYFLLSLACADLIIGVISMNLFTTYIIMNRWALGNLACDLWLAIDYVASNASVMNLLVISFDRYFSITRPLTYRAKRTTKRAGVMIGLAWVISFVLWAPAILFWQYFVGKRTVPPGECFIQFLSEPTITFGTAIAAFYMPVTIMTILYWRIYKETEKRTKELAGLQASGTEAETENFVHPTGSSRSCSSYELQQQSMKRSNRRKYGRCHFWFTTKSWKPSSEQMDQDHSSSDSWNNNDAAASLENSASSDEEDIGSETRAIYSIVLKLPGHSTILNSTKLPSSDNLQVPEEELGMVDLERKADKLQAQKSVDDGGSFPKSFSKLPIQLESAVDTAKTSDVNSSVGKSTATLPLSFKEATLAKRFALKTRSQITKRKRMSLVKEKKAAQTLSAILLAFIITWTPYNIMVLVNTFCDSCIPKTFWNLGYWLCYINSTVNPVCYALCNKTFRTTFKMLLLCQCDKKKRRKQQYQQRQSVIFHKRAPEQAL

As to `COc1ccc2c(n1)c(CCNC(C)=O)cn2CCNC(=O)CCc1ccc2n1[B-](F)(F)[N+]1=C(c3ccc[nH]3)C=CC1=C2` [Azamelatonin-1-NB590], the “NanoBRET Fold Response” value is recorded as 0.97 in assay [1] (0.1μM tracer); 0.96 in assay [1] (1μM tracer); 1.06 in assay [2] (0.1μM tracer); 0.97 in assay [2] (1μM tracer); 0.93 in assay [3] (0.1μM tracer); 0.84 in assay [3] (1μM tracer). The “NanoBRET Fold Response” value in assay [4] (0.1μM tracer) turned out to be 1.14; in assay [4] (1μM tracer), 1.14; in assay [5] (0.1μM tracer), 1.39; in assay [5] (1μM tracer), 0.74; in assay [6] (0.1μM tracer), 1.05; in assay [6] (1μM tracer), 0.96.
For the compound `O=C(CCOCCOCCOCCOCCNC(=O)CCc1ccc2n1[B-](F)(F)[N+]1=C(c3ccc[nH]3)C=CC1=C2)NCCCN1CCN(C2=Nc3ccccc3Oc3ccc(Cl)cc32)CC1` [Loxapine-a-2-NB590], the “NanoBRET Fold Response” value in assay [1] (DRD5, tracer 0.1μM) turned out to be 1.25; in assay [1] (DRD5, tracer 1μM), 2.20; in assay [2] (CCR2, tracer 0.1μM), 0.97; in assay [2] (CCR2, tracer 1μM) it was 0.81; in assay [3] (HCRTR1, tracer 0.1μM) it was 0.93; in assay [3] (HCRTR1, tracer 1μM), 1.09. Further, the “NanoBRET Fold Response” value in assay [4] was 3.64 and 4.76; in assay [5] (BDKRB1, tracer 0.1μM), 1.05; in assay [5] (BDKRB1, tracer 1μM), 1.27; in assay [6], 0.96 and 1.07.
Turning to `CC(C)N(CC[C@H](c1ccccc1)c1cc(CCNC(=O)c2ccc(CNC(=O)CCc3ccc4n3[B-](F)(F)[N+]3=C(c5ccc[nH]5)C=CC3=C4)cc2)ccc1O)C(C)C` [Tolterodine-BZ-NB590], the “NanoBRET Fold Response” value in assay [1] (DRD5, tracer 0.1μM) is 1.02; in assay [1] (DRD5, tracer 1μM), 1.18; in assay [2] (CCR2, tracer 0.1μM) it was 0.99; in assay [2] (CCR2, tracer 1μM), 0.89; in assay [3] (HCRTR1, tracer 0.1μM), 0.86; in assay [3] (HCRTR1, tracer 1μM), 1.07. Moreover, the “NanoBRET Fold Response” value in assay [4] (HRH1, tracer 0.1μM) was found to be 0.99; in assay [4] (HRH1, tracer 1μM), 1.10; in assay [5] (BDKRB1, tracer 0.1μM), 1.02; in assay [5] (BDKRB1, tracer 1μM) it was 0.85; in assay [6] (CHRM3, tracer 0.1μM), 1.18; in assay [6] (CHRM3, tracer 1μM) it was 1.25.
On to `CC(C)N(CC[C@H](c1ccccc1)c1cc(CCNC(=O)CCOCCOCCOCCOCCNC(=O)CCc2ccc3n2[B-](F)(F)[N+]2=C(c4ccc[nH]4)C=CC2=C3)ccc1O)C(C)C` [Tolterodine-2-NB590], for which the “NanoBRET Fold Response” value in assay [1] (DRD5, tracer 0.1μM) is 1.01; in assay [1] (DRD5, tracer 1μM) it was 1.04; in assay [2] (CCR2, tracer 0.1μM), 1.20; in assay [2] (CCR2, tracer 1μM) it was 0.98; in assay [3] (HCRTR1, tracer 0.1μM), 1.04; in assay [3] (HCRTR1, tracer 1μM) it was 1.16. The “NanoBRET Fold Response” value came to 1.08 in assay [4] (HRH1, tracer 0.1μM); 1.58 in assay [4] (HRH1, tracer 1μM); 0.99 in assay [5] (BDKRB1, tracer 0.1μM); 0.79 in assay [5] (BDKRB1, tracer 1μM); 1.67 in assay [6] (CHRM3, tracer 0.1μM); 1.52 in assay [6] (CHRM3, tracer 1μM).
In the case of `N#CN=C(NCCCOc1cccc(CN2CCCCC2)c1)NCCNC(=O)CCOCCOCCOCCOCCNC(=O)CCc1ccc2n1[B-](F)(F)[N+]1=C(c3ccc[nH]3)C=CC1=C2` [Aminopotentidine-2-NB590], the “NanoBRET Fold Response” value amounted to 1.02 in assay [1] (DRD5, tracer 0.1μM); 1.01 in assay [1] (DRD5, tracer 1μM); 0.93 in assay [2] (CCR2, tracer 0.1μM); 0.98 in assay [2] (CCR2, tracer 1μM); 0.98 in assay [3] (HCRTR1, tracer 0.1μM); 0.95 in assay [3] (HCRTR1, tracer 1μM). Moreover, the “NanoBRET Fold Response” value is given as 0.91 in assay [4] (HRH1, tracer 0.1μM); 1.08 in assay [4] (HRH1, tracer 1μM); 1.01 in assay [5] (BDKRB1, tracer 0.1μM); 1.02 in assay [5] (BDKRB1, tracer 1μM); 0.99 in assay [6] (CHRM3, tracer 0.1μM); 1.04 in assay [6] (CHRM3, tracer 1μM).
